In patent publication US10913781B2, “Pepducin design and use” (Tufts Medical Center, Inc., priority 2011, dated 2021):
Peptide text beside a SMILES is read from it. * marks the point of attachment. Palmitoyl = CCCCCCCCCCCCCCCC(=O)*

Tests used:
PAR4 [1] = biological target: T1, PAR4 (Homo sapiens, UniProt Q96RI0); assay: Human neutrophil chemotaxis to AYPGKF; format: cell-based; design: endogenous in cells; host or cells: human peripheral blood neutrophils; details: 100 μM AYPGKF
T1 sequence (Q96RI0 18-385): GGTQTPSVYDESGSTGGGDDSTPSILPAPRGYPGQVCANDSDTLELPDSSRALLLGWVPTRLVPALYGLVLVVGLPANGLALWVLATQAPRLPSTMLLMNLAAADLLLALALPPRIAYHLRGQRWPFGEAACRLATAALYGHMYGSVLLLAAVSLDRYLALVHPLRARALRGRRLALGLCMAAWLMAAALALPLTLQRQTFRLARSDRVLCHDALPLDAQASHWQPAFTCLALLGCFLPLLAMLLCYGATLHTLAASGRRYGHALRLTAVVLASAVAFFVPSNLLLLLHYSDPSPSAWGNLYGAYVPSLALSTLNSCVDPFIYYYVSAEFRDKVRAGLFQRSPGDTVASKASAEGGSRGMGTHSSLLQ
Procedure: (§1) (A) Human neutrophils (n=4 normal volunteers) were analyzed for surface expression of human PAR1, PAR2, and PAR4 by flow cytometry with PAR-specific antibodies. […] Chemotaxis index is the ratio of directed versus random migration over 30 min through a 5-μm pore filter.
P2pal-18S had no effect on PAR1-dependent platelet aggregation (FIG. 5A). Neither P2pal-18S nor P2pal-14GQ caused membrane disruption or apoptosis as assessed by propidium iodide uptake in SW620 cells with up to 30 μM concentrations of pepducin (FIG. 5B).

PAR4 [2] = biological target: T1, PAR4; assay: Calcium flux assay in SW620 cells, PAR4; format: cell-based; design: endogenous in cells
PAR2 = PAR2 (Homo sapiens, UniProt P55085); assay: Human neutrophil chemotaxis to PAR2 agonists (trypsin, SLIGRL, tryptase); format: cell-based; design: SW620 colon adenocarcinoma cells that endogenously express PAR2; endogenous in cells; host or cells: SW620 (in A7 the SW620 cells were additionally stably transfected with PAR1)
Procedure: as §1
The ability of some pepducin embodiments of the invention to antagonize PAR2-dependent activity of human neutrophils was tested. Neutrophils were isolated from the peripheral blood of healthy human volunteers and found to express high levels of surface PAR2 and PAR4 and lower apparent levels of PAR1 by flow cytometry (FIG. 3A). […] As human PAR2 shares 85% identity with mouse PAR2 and the mouse i3 loop retains all of the critical pharmacophores identified in the human PAR2 i3 loop, cross-species inhibition with mouse cells was tested.

A549 xenografts = format: in vivo, mouse
Procedure: FIG. 13 illustrates that monotherapy with PAR1-i3 pepducins inhibits tumor progression of A549 xenografts. (A) and (B): A549 mice treated with vehicle, P1pal-7, P1pal-i1-11, P1pal-10S, X1/2-i1, X1/2-i3, or Avastin. Each time point represents the mean±SE. (C): Final tumor volume at the completion of the experiment was calculated as a percentage of untreated vehicle control. (D): Serum-starved A549 adenocarcinoma cells were pretreated with P1pal-7, P1pal-10S, P1pal-i1-11, vehicle, or PD98059 and stimulated with thrombin. VEGF production was assessed by enzyme-linked immunosorbent assay. Data are expressed as mean±SD (*P<0.05, **P<0.01).
PAR1 expression level is correlated with reduced survival of patients with NSCLC. To define the relative importance of PAR1 in lung tumor progression, in vivo mouse models were used. […] An A549 lung adenocarcinoma xenograft model in nude mice was used to evaluate monotherapy with P1pal-7, P1pal-10S, P1pal-i1-11, or the VEGF antagonist Avastin.

PAR1 = biological target: T2, PAR1 (Homo sapiens, UniProt P25116); assay: Migration of primary patient lung tumor cells; format: cell-based; design: endogenous in cells; host or cells: A549, HOP62, H1299, H522, H226, HOP92 lung carcinoma lines
T2 sequence (P25116 22-425): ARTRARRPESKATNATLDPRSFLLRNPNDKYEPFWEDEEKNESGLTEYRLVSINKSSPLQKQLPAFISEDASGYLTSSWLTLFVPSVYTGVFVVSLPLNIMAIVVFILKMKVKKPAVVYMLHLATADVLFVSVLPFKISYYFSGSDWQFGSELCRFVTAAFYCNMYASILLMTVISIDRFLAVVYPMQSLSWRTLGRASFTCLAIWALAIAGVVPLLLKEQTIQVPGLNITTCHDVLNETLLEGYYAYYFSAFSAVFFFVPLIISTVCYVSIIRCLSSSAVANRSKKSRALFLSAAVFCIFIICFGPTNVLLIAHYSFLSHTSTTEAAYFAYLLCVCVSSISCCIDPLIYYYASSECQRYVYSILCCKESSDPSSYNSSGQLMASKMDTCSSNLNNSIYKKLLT
Procedure: FIG. 12 illustrates that PAR1 is a promigratory factor in lung cancer cells. (A-F): Inhibition of lung cancer migration in adenocarcinomas A549, HOP62, H1299 and H522, H226 squamous, and HOP92 large cell using PAR1 pepducins. Pepducins at […] (P1pal-7, P1pal-10S, P1pal-i1-11, or negative control P1pal-19EE) were added to the lower well. (G): Cell from primary lung tumors or nonmalignant control were pretreated with PAR1 pepducins and migration was determined (*P<0.05, **P<0.01).
Further experiments were carried out to determine whether migration of the primary carcinoma cell lines isolated from lung tumors could be inhibited by PAR1 pepducins (FIG. 12G). […] Likewise, the RWJ-56110 small-molecule antagonist of PAR1 (Andrade-Gordon, et al., Proc. Natl Acad Sci USA, 96 (1999), pp. 12257-12262) suppressed up to 55% of the migration of primary lung tumor cells toward NIH-3T3 conditioned media. The PAR1 antagonist pepducin P1pal-7 and P1pal-i1-11 had no effect on the low-expressing PAR1 cell line derived from benign lung tissue, which migrated poorly (FIG. 12G).

Sequence of PAR2 (P55085 26-397): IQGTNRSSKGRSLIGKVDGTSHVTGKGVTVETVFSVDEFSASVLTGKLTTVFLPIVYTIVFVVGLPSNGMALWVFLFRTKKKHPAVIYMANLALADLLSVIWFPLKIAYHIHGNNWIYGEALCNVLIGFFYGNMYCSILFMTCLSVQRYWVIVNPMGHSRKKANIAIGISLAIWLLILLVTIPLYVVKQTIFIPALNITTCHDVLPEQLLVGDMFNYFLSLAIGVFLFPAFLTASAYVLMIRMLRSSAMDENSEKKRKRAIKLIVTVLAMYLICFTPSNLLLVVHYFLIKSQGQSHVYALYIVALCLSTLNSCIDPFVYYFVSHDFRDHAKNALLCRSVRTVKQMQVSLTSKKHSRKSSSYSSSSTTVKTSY

Antagonist activity, neutrophil chemotaxis, PAR4 (PAR4 [1]) | Inhibition of PAR4 calcium flux (PAR4 [2]) | Inhibition of chemotactic migration to tryptase (PAR2; 0.3 μM pepducin, 100 nM tryptase) | IC50 (PAR2; gradients of trypsin (30 nM) and SLIGRL (10 μM), 30 min, read-out: IC50, inhibition of neutrophil chemotaxis) [nM] | Effect on migration of low-expressing PAR1 cell line derived from benign lung tissue (PAR1) | Compound | Early tumor growth blockade (A549 xenografts; by day 20) | Inhibition of tumor progression/growth (final tumor volume vs vehicle) (A549 xenografts; monotherapy, nude mice)
no antagonist activity | did not inhibit | completely blocked | 140 to 200 | – | CCCCCCCCCCCCCCCC(=O)N[C@@H](CCCNC(=N)N)C(=O)N[C@@H](CO)C(=O)N[C@@H](CO)C(=O)N[C@@H](C)C(=O)N[C@@H](CCSC)C(=O)N[C@@H](CC(=O)O)C(=O)N[C@@H](CCC(=O)O)C(=O)N[C@@H](CC(N)=O)C(=O)N[C@@H](CO)C(=O)N[C@@H](CCC(=O)O)C(=O)N[C@@H](CCCCN)C(=O)N[C@@H](CCCCN)C(=O)N[C@@H](CCCNC(=N)N)C(=O)N[C@@H](CCCCN)C(=O)N[C@@H](CO)C(=O)N[C@@H](C)C(=O)N[C@H](C(=O)N[C@@H](CCCCN)C(N)=O)[C@@H](C)CC [P2pal-18S] | – | –
– | – | – | – | no effect | CCCCCCCCCCCCCCCC(=O)N[C@H](C(=O)N[C@@H](CC(C)C)C(=O)N[C@@H](CCCCN)C(=O)N[C@@H](CCSC)C(=O)N[C@@H](CCCCN)C(=O)N[C@H](C(=O)N[C@@H](CCCCN)C(=O)N[C@@H](CCCCN)C(=O)N1CCC[C@H]1C(=O)N[C@@H](C)C(=O)N[C@H](C(N)=O)C(C)C)C(C)C)[C@@H](C)CC [P1pal-i1-11] (Palmitoyl-ILKMKVKKPAV-NH2) | significant blockade of tumor growth | did not inhibit the long-term growth
